Experimental data: ChEMBL document CHEMBL4251672, “Penicilindoles A-C, Cytotoxic Indole Diterpenes from the Mangrove-Derived Fungus Eupenicillium sp. HJ002” (J Nat Prod, 2018)
pIC50: −log10 of the molar value. Where a name gives a salt, the structure may show the parent alone. Activity calls are given as the source filed them. The rule behind the calls is not given here.

Experiments:
HeLa = experiment: Cytotoxicity against human HeLa cells assessed as decrease in cell viability by MTT assay; assay type: functional, cell-based
A549 = experiment: Cytotoxicity against human A549 cells assessed as decrease in cell viability by MTT assay; assay type: functional, cell-based
Vibrio parahaemolyticus = experiment: Antibacterial activity against Vibrio parahaemolyticus ATCC 17802 at 20 uM; assay type: functional, organism-based
Escherichia coli = experiment: Antibacterial activity against Escherichia coli ATCC 25922 at 20 uM; assay type: functional, organism-based
Staphylococcus aureus [1] = experiment: Antibacterial activity against methicillin-resistant Staphylococcus aureus ATCC 33591 at 20 uM; assay type: functional, organism-based
HepG2 = experiment: Cytotoxicity against human HepG2 cells assessed as decrease in cell viability by MTT assay; assay type: functional, cell-based
Vibrio alginolyticus = experiment: Antibacterial activity against Vibrio alginolyticus ATCC 17749 at 20 uM; assay type: functional, organism-based
Staphylococcus aureus [2] = experiment: Antibacterial activity against Staphylococcus aureus ATCC 25923 at 20 uM; assay type: functional, organism-based
Bacillus cereus = experiment: Antibacterial activity against Bacillus cereus ATCC 11778 at 20 uM; assay type: functional, organism-based

Row | SMILES | pIC50 (HeLa) | pIC50 (A549) | Activity (Vibrio parahaemolyticus) | Activity (Escherichia coli) | Activity (Staphylococcus aureus [1]) | pIC50 (HepG2) | Activity (Vibrio alginolyticus) | Activity (Staphylococcus aureus [2]) | Activity (Bacillus cereus)
1 | COc1cccc2c1C(=O)c1c(O)c3c(c(O)c1C2=O)C[C@@](O)(C(=O)CO)C[C@@H]3O[C@H]1C[C@H](N)[C@H](O)[C@H](C)O1 [DOXORUBICIN HYDROCHLORIDE] | 7.00 |  |  |  |  |  |  |  | 
2 | CC(C)=CCC[C@@]12[C@@H](O)CC[C@@H](C)[C@]1(C)CC[C@@](C)(O)[C@H]2Cc1c[nH]c2ccccc12 | 4.63 | 5.26 | inactive | inactive | inactive | 5.82 | inactive | inactive | inactive
3 | O=c1[nH]cc(F)c(=O)[nH]1 [FLUOROURACIL] | 4.55 | 4.43 |  |  |  |  |  |  | 
4 | CC(C)=CCC[C@@]12C(=O)CC[C@@H](C)[C@]1(C)CC[C@@](C)(O)[C@H]2Cc1c[nH]c2ccccc12 | 4.70 | 4.73 | inactive | inactive | inactive | 4.33 | inactive | inactive | inactive
